This note sets out measurements from US4359468A, “Antiallergic N-[4-(indolyl)-piperidino-alkyl]-benzimidazolones” (Boehringer Ingelheim Ltd., priority 1981, dated 1982).

Assay [1] relates to passive cutaneous anaphylaxis skin reaction in rats (anti-OA reaginic serum, ovalbumin challenge). As to the kind of experiment: Rat Passive Cutaneous Anaphylaxis (PCA) Test. Type of assay: in vivo. The note with it: male CD rats, 50 percent reduction in area, i.v. or oral, route not given. The procedure: Rat Passive Cutaneous Anaphylaxis (PCA) Test
The test used was essentially that described by El-Azab, J. and Stewart, P. B., "Pharmacological Profile of a New Anti-Allergic Compound PRD-92-EA." Int. Archs. Allergy Appl. Immunol. 55: 350-361, 1977;
A dilution of anti-OA reaginic serum was used to give reproducible skin reactions with diameters between 10-15 mm in unsensitized rats. This anti-serum dilution was injected in a volume of 0.1 ml intradermally on each side of the shaved backs of male CD rats (150-160 gm) before antigen challenge. Test compounds which were evaluated by the intravenous (i.v.) route were dissolved in water, and mixed with 0.5 ml of a solution containing 5 mg ovalbumin and 2 percent Evans Blue and administered at a volume of 1 ml/kg. […]
Thirty minutes after antigenic challenge, i.e. for either intravenous or oral administration, the rats were killed by CO2 asphyxiation. A midline incision was made along the spine and the skin was reflected and the diameter of the blued areas were measured in millimeters. The mean area in square millimeters was determined for each spot and the mean circular area of that test group was calculated. The mean area in square millimeters of an untreated control group was considered as a 100 percent response, and the results of the test compound groups were expressed as a percent change from the control values. […]

For a further assay, the system named is mast cells. Nature of the assay: Inhibition of Peritoneal Mast Cell Degranulation (MCD) in Rats Passively Sensitized with OA Antiserum or Induced by Compound 48/80. The note with it: male CD rats, OA antiserum or Compound 48/80, i.v., i.p. or p.o., route not given. In kind it is in vivo, rat. The procedure:
Inhibition of Peritoneal Mast Cell Degranulation (MCD) in Rats Passively Sensitized with OA Antiserum or Induced by Compound 48/80
This test was adapted from that described by Mota, I. and Osler, A. G. "Mast Cell Degranulation,"
Male CD rats (150-160 gm) were divided into 5 groups as follows:
Group I: Nonspecific MCD control (3 rats)
Group II: Positive MCD control (5 rats)
Groups III, IV, V: Positive MCD following test compound (5 rats each)
Group I was injected intraperitoneally with 3 ml of normal rat serum. Groups II through V were intraperitoneally administered 3 ml of an antiserum predetermined to produce a 60-80 percent greater degranulation than normal rat serum. Eighteen to 24 hours later, test compound was administered (i.e., i.v. immediately, i.p. 5 minutes, or p.o. 20 minutes) before i.p. antigen challenge with 0.5 mg/kg of 2×crystalline ovalbumin in a concentration of 0.005 percent saline. Fifteen minutes after challenge, the rats were killed by asphyxiation with CO2. […]
Microscopic slides of the mesentery were prepared and analyzed by a modification of the method by Fugner, A. "An Improved Method for the Study of Reaginmediated Mast Cell Degranulation in Rats," Experientia, 29: 708, 1973, […]
The results were calculated and expressed as percent of inhibition of degranulation as follows: [formula]

Assay [2] has as its system histamine-induced blueing in rat skin. Nature of the assay: In Vivo Inhibition of Histamine-Induced Blueing in Rat Skin. The settings on record: po, male CD rats, 50 percent reduction in blue-spotted area, p.o., 3 μg histamine intradermal, read-out: ED50 Antihist. The procedure: In Vivo Inhibition of Histamine-Induced Blueing in Rat Skin
Male CD rats (150-160 gm) were divided into two groups. The hair was removed from an area of the back with an electric clipper. An untreated control group received 10 ml/kg, p.o. of normal saline in 1 percent acacia. Experimental groups received test compound suspended in 1 percent acacia at a volume of 10 ml/kg, p.o. Two percent Evans Blue dye in normal saline in a volume of 0.5 ml was administered intravenously to all animals. Twenty minutes following administration of the test compound or vehicle, 3 μg of histamine diphosphate in 0.1 ml of normal saline was injected intradermally in two sites of the shaved area on the backs of the rats. Fifteen minutes following histamine injection, all rats were killed by CO2 asphyxiation.
An incision was made along the spine and the skin cleanly separated. The dorsal skin was reflected and the diameters of the blue-spotted wheals were measured. The area in square millimeters was determined for each resulting blue spot and the mean area for the control and test groups were calculated. The mean area for the control group was considered as a 100 percent response. Test group results were expressed as a percentage change from control. An ED50 (i.e., defined as a 50 percent reduction in blue-spotted area) was determined by linear regression analysis.

Turning to `O=c1[nH]c2ccccc2n1CCCN1CCC(c2c[nH]c3ccccc23)CC1` [Example 4, N-{3-[4-(3-indolyl)-piperidino]-propyl}-benzimidazolone], the ED50 was 1.6 mg/kg in assay [1]; 3 to 6.4 mg/kg in the assay on mast cells (Rattus norvegicus, Mast cell); 8.7 mg/kg in assay [2].

As to `O=c1[nH]c2ccccc2n1CCCN1CCN(C(c2ccccc2)c2ccccc2)CC1` [Oxatomide], the ED50 in assay [1] worked out at 8.3 mg/kg; in assay [2], 8.1 mg/kg. Further, in the assay with mast cells, the “ED50 MCD” value is listed as “neg”.

The term ED50 denotes the dose that gives a 50% effect, or the effect in half of the subjects.
